Results on four compounds are retold here after patent publication US10457707B2, “Substituted urea depsipeptide analogs as activators of the CLPP endopeptidase” (priority 2015, dated 2019).

Converted amounts (≈) assume the structure as drawn. *1 amine or outer side, *2 acyl side, *3 side chain or, on linkers, in order; H or OH if unused. Where a SMILES comes first, the peptide text is derived from it. Bridges are numbered along the chain shown (N, C = ends). [ ]: non-standard residue; d: D form. The star is where a group is joined. X15 = O=C([C@@H]1C[C@@H](OP(=O)(O)O)CN1[*:1])[*:2]; Phe(3,5-F2) = N[C@@H](Cc1cc(F)cc(F)c1)C(=O)O; Morpholine(3S-CO) = O=C(O)[C@@H]1COCCN1; Pro(4S-Me) = C[C@@H]1CN[C@H](C(=O)O)C1; Pro(4R-Me) = C[C@H]1CN[C@H](C(=O)O)C1; NH(3,4-Me2-phenyl) = Cc1ccc(N*)cc1C; NH(4-Me-phenyl) = Cc1ccc(N*)cc1; aThr = C[C@H](O)[C@H](N)C(=O)O; Pip = O=C(O)[C@@H]1CCCCN1; NMeA = CN[C@@H](C)C(=O)O; CO = O=C([*:1])[*:2]

The subject of data set [1] is Vero (kidney epithelial cells; ATCC CCL-81). Nature of the data set: Cytotoxicity assay (CellTiter-Glo cell viability, 72 hours). The format is cell-based. To be noted: Vero cells, 72 hours, growth inhibition; read-out: Cytotoxicity IC50. In a few lines: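 Viability measured by CellTiter-Glo luminescence after 72-hour compound exposure (serial dilutions, DMSO control) of Vero monolayers seeded at 5000 cells/well in 10% FBS DMEM. IC50 values are the range of two biologically independent experiments, each run in duplicate.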

Data set [2] concerns Staphylococcus aureus, NRS70. Nature of the data set: Minimal inhibitory concentration assay (microbroth dilution). The class given is cell-based. To be noted: Staphylococcus aureus, NRS70, read-out: Minimal Inhibitory Concentrations S. aureus NRS70. In a few lines:
(§1)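 Compound is serially diluted two-fold in the appropriate broth, and bacterial inoculum at about 10^5 cfu/mL is added so the highest final concentration is 200 μM. Plates stay overnight at 37 °C under aerobic conditions before growth is scored by eye.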

The subject of data set [3] is Enterococcus faecalis, ATCC 33186. Described as above. The class given is cell-based. To be noted: Enterococcus faecalis, ATCC33186, read-out: Minimal Inhibitory Concentrations E. faecalis ATCC 33186. In a few lines:
as §1

The subject of data set [4] is Staphylococcus aureus, ATCC 29213. The description is as above. The format is cell-based. To be noted: ATCC29213, read-out: Minimal Inhibitory Concentrations S. aureus ATCC 29213. In a few lines:
as §1

Data set [5] deals with Bacillus subtilis, ATCC 23857. Described as above. The class given is cell-based. To be noted: Bacillus subtilis, ATCC23857, read-out: Minimal Inhibitory Concentrations B. subtilis ATCC 23857. In a few lines:
as §1

For data set [6], the system named is Streptococcus pneumoniae, DAW27. The description is as above. The class given is cell-based. To be noted: DAW27, read-out: Minimal Inhibitory Concentrations S. pneumoniae DAW27. In a few lines: as §1
Data set [7] has as its system E. coli K12ΔtolC. The description is as above. The class given is cell-based.
Data set [8] deals with Streptococcus pyogenes, ATCC 700294. The data set is described as above. The format is cell-based. To be noted: Streptococcus pyogenes, ATCC700294, read-out: Minimal Inhibitory Concentrations S. pyogenes ATCC 700294. In a few lines: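 Plates with two-fold compound dilution series in broth were incubated overnight, aerobically, at 37° C, following CLSI microdilution guidance.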

A short description of data set [9]: physchem. To be noted: 22 °C, aqueous buffer, kinetic from dmso stock.

For the compound `C[C@@H]1C[C@H]2C(=O)OC[C@H](NC(=O)[C@H](Cc3ccccc3)NC(=O)Nc3cccc(Cl)c3)C(=O)N3CCC[C@H]3C(=O)N3CCCC[C@H]3C(=O)N[C@@H](C)C(=O)N2C1` [Compound 9, (S)-2-(3-(3-chlorophenyl)ureido)-N-((2R,6S,8aS,14aS,20S,23aS)-2,6-dimethyl-5,8,14,19,23-pentaoxooctadecahydro-1H,5H,14H,19H-pyrido[2,1-i]dipyrrolo[2,1-c:2′,1′-l][1]oxa[4,7,10,13]tetraazacyclohexadecin-20-yl)-3-phenylpropanamide], in data set [1], the IC50 was 89 ± 5 µM. Moreover, the MIC turned out to be 1.56 µM (≈ 1.21 µg/mL) in [2]; 1.56 µM (≈ 1.21 µg/mL) in data set [3]; 3.13 µM (≈ 2.44 µg/mL) in [4]; 1.56 µM (≈ 1.21 µg/mL) in data set [5]; 0.78 µM (≈ 0.607 µg/mL) in [6]; 1.56 µM (≈ 1.21 µg/mL) in [8]. Besides, the “Minimal Inhibitory Concentrations E. coli K12ΔtolC” value in [7] is 25 µM.
The compound `Cc1ccc(NC(=O)N[C@@H](Cc2cc(F)cc(F)c2)C(=O)N[C@@H]2C(=O)N3C[C@H](OP(=O)(O)O)C[C@H]3C(=O)N(C)[C@@H](C)C(=O)N[C@@H](C)C(=O)N3C[C@@H](C)C[C@H]3C(=O)O[C@H]2C)cc1` [Compound 187, (2S,6S,9S,11aS,13R,17S,18S,20aS)-17-((S)-3-(3,5-difluorophenyl)-2-(3-(p-tolyl)ureido)propanamido)-2,6,9,10,18-pentamethyl-5,8,11,16,20-pentaoxohexadecahydro-1H,5H,16H-dipyrrolo[2,1-c:2′,1′-l][1]oxa[4,7,10,13]tetraazacyclohexadecin-13-yl dihydrogen phosphate] ({NH(4-Me-phenyl)-CO}-[Phe(3,5-F2)][aThr][X15][NMeA]A[Pro(4S-Me)]; ester 2-C) yielded a solubility in data set [9] of 118 ± 1.4 µM.
Regarding `Cc1ccc(NC(=O)N[C@@H](Cc2cc(F)cc(F)c2)C(=O)N[C@@H]2C(=O)N3C[C@H](OP(=O)(O)O)C[C@H]3C(=O)N3CCOC[C@H]3C(=O)N[C@@H](C)C(=O)N3C[C@H](C)C[C@H]3C(=O)O[C@H]2C)cc1C` [Compound 189, (6aS,8R,12S,13S,15aS,17R,21S,23aS)-12-((S)-3-(3,5-difluorophenyl)-2-(3-(3,4-dimethylphenyl)ureido)propanamido)-13,17,21-trimethyl-6,11,15,20,23-pentaoxooctadecahydro-6H,11H,15H-[1,4]oxazino[3,4-i]dipyrrolo[2,1-c:2′,1′-L][1]oxa[4,7,10,13]tetraazacyclohexadecin-8-yl dihydrogen phosphate] ({NH(3,4-Me2-phenyl)-CO}-[Phe(3,5-F2)][aThr][X15][Morpholine(3S-CO)]A[Pro(4R-Me)]; ester 2-C), the solubility in [9] is 117 ± 3.2 µM.
In data set [9], `Cc1ccc(NC(=O)N[C@@H](Cc2cc(F)cc(F)c2)C(=O)N[C@@H]2C(=O)N3C[C@H](OP(=O)(O)O)C[C@H]3C(=O)N3CCCC[C@H]3C(=O)N[C@@H](C)C(=O)N3C[C@H](C)C[C@H]3C(=O)O[C@H]2C)cc1` [Compound 190, (2R,6S,8aS,14aS,16R,20S,21S,23aS)-20-((S)-3-(3,5-difluorophenyl)-2-(3-(p-tolyl)ureido)propanamido)-2,6,21-trimethyl-5,8,14,19,23-pentaoxooctadecahydro-1H,5H,14H,19H-pyrido[2,1-i]dipyrrolo[2,1-c:2′,1′-l][1]oxa[4,7,10,13]tetraazacyclohexadecin-16-yl dihydrogen phosphate] ({NH(4-Me-phenyl)-CO}-[Phe(3,5-F2)][aThr][X15][Pip]A[Pro(4R-Me)]; ester 2-C) had a solubility of 113 ± 3.9 µM.
